{
  "source": "paper PMC10323144",
  "about": "“Garbage in, garbage out: how reliable training data improved a virtual screening approach against SARS-CoV-2 MPro” (Frontiers in Pharmacology, 2023)",
  "biological_target": "SARS-CoV-2 MPro (Severe acute respiratory syndrome coronavirus 2, UniProt P0DTD1)",
  "assay": "MPro activity assay (de-quenching of Edans fluorescence on cleavage of a Dabcyl/Edans peptide)",
  "format": "biochemical",
  "settings": "in-house acquired data, internal screening under standardized conditions (128 compounds)",
  "note": "Square brackets hold non-standard residues; d marks the D form. Peptide text beside a SMILES is read from it. * marks the point of attachment. NMeF = CN[CH](Cc1ccccc1)C(=O)O; NMeA = CN[CH](C)C(=O)O; tBu = CC(C)(C)*",
  "data": [
    {"molecule": "NC(=O)c1ccccc1I", "note": "[COV19035]", "values": [
      {"measurement": "Class (MPro activity class)", "value": "0 (compounds with IC50 > 20 μM, percentage inhibition <80% at 20 µM or 50 μM, or percentage enzyme inhibition <50% at 10 µM were labelled as INACTIVE)"}
    ]},
    {"molecule": "Cc1cccc(C(N)=O)c1I", "note": "[COV19036]", "values": [
      {"measurement": "Class (MPro activity class)", "value": "0 (compounds with IC50 > 20 μM, percentage inhibition <80% at 20 µM or 50 μM, or percentage enzyme inhibition <50% at 10 µM were labelled as INACTIVE)"}
    ]},
    {"molecule": "O=C(Nc1ccc(C(F)(F)F)cc1)c1ccccc1I", "note": "[COV19037]", "values": [
      {"measurement": "Class (MPro activity class)", "value": "0 (compounds with IC50 > 20 μM, percentage inhibition <80% at 20 µM or 50 μM, or percentage enzyme inhibition <50% at 10 µM were labelled as INACTIVE)"}
    ]},
    {"molecule": "Cc1ccc(NC(=O)c2c(C)cc(Cl)cc2I)cc1", "note": "[COV19038]", "values": [
      {"measurement": "Class (MPro activity class)", "value": "0 (compounds with IC50 > 20 μM, percentage inhibition <80% at 20 µM or 50 μM, or percentage enzyme inhibition <50% at 10 µM were labelled as INACTIVE)"}
    ]},
    {"molecule": "Cc1cc(Cl)cc(I)c1C(=O)NCc1ccccc1", "note": "[COV19039]", "values": [
      {"measurement": "Class (MPro activity class)", "value": "0 (compounds with IC50 > 20 μM, percentage inhibition <80% at 20 µM or 50 μM, or percentage enzyme inhibition <50% at 10 µM were labelled as INACTIVE)"}
    ]},
    {"molecule": "Cc1cccc(C(=O)NCc2ccccc2)c1I", "note": "[COV19040]", "values": [
      {"measurement": "Class (MPro activity class)", "value": "0 (compounds with IC50 > 20 μM, percentage inhibition <80% at 20 µM or 50 μM, or percentage enzyme inhibition <50% at 10 µM were labelled as INACTIVE)"}
    ]},
    {"molecule": "CC1C(=O)NC(Cc2ccccc2)C(=O)N(C)C(Cc2ccccc2)C(=O)NCC(=O)N1C", "note": "(stereo not drawn) [COV19080] (cyclo(G[NMeA]F[NMeF]); configuration not given here)", "values": [
      {"measurement": "Class (MPro activity class)", "value": "0 (compounds with IC50 > 20 μM, percentage inhibition <80% at 20 µM or 50 μM, or percentage enzyme inhibition <50% at 10 µM were labelled as INACTIVE)"}
    ]},
    {"molecule": "CC1C(=O)NC(Cc2ccc(OC(C)(C)C)cc2)C(=O)NCC(=O)N(C)C(Cc2ccccc2)C(=O)N1C", "note": "(stereo not drawn) [COV19081] (cyclo(G[NMeF][NMeA]Y(tBu)); configuration not given here)", "values": [
      {"measurement": "Class (MPro activity class)", "value": "0 (compounds with IC50 > 20 μM, percentage inhibition <80% at 20 µM or 50 μM, or percentage enzyme inhibition <50% at 10 µM were labelled as INACTIVE)"}
    ]},
    {"molecule": "CC1NC(=O)C(Cc2ccccc2)N(C)C(=O)CNC(=O)C(Cc2ccccc2)N(C)C1=O", "note": "(stereo not drawn) [COV19097] (cyclo(G[NMeF]A[NMeF]); configuration not given here)", "values": [
      {"measurement": "Class (MPro activity class)", "value": "0 (compounds with IC50 > 20 μM, percentage inhibition <80% at 20 µM or 50 μM, or percentage enzyme inhibition <50% at 10 µM were labelled as INACTIVE)"}
    ]},
    {"molecule": "CC(=NNC(N)=S)c1cc2ccccc2oc1=O", "note": "[COV19136]", "values": [
      {"measurement": "Class (MPro activity class)", "value": "0 (compounds with IC50 > 20 μM, percentage inhibition <80% at 20 µM or 50 μM, or percentage enzyme inhibition <50% at 10 µM were labelled as INACTIVE)"}
    ]},
    {"molecule": "CNC(=S)NN=C(C)c1cc2ccccc2oc1=O", "note": "[COV19137]", "values": [
      {"measurement": "Class (MPro activity class)", "value": "0 (compounds with IC50 > 20 μM, percentage inhibition <80% at 20 µM or 50 μM, or percentage enzyme inhibition <50% at 10 µM were labelled as INACTIVE)"}
    ]},
    {"molecule": "CCNC(=S)NN=C(C)c1cc2ccccc2oc1=O", "note": "[COV19138]", "values": [
      {"measurement": "Class (MPro activity class)", "value": "0 (compounds with IC50 > 20 μM, percentage inhibition <80% at 20 µM or 50 μM, or percentage enzyme inhibition <50% at 10 µM were labelled as INACTIVE)"}
    ]},
    {"molecule": "CC(=NNC(=S)Nc1ccccc1)c1cc2ccccc2oc1=O", "note": "[COV19139]", "values": [
      {"measurement": "Class (MPro activity class)", "value": "0 (compounds with IC50 > 20 μM, percentage inhibition <80% at 20 µM or 50 μM, or percentage enzyme inhibition <50% at 10 µM were labelled as INACTIVE)"}
    ]},
    {"molecule": "CC(=NNC(N)=S)c1c(O)c2ccccc2oc1=O", "note": "[COV19140]", "values": [
      {"measurement": "Class (MPro activity class)", "value": "0 (compounds with IC50 > 20 μM, percentage inhibition <80% at 20 µM or 50 μM, or percentage enzyme inhibition <50% at 10 µM were labelled as INACTIVE)"}
    ]},
    {"molecule": "CNC(=S)NN=C(C)c1c(O)c2ccccc2oc1=O", "note": "[COV19141]", "values": [
      {"measurement": "Class (MPro activity class)", "value": "0 (compounds with IC50 > 20 μM, percentage inhibition <80% at 20 µM or 50 μM, or percentage enzyme inhibition <50% at 10 µM were labelled as INACTIVE)"}
    ]},
    {"molecule": "CCNC(=S)NN=C(C)c1c(O)c2ccccc2oc1=O", "note": "[COV19142]", "values": [
      {"measurement": "Class (MPro activity class)", "value": "0 (compounds with IC50 > 20 μM, percentage inhibition <80% at 20 µM or 50 μM, or percentage enzyme inhibition <50% at 10 µM were labelled as INACTIVE)"}
    ]},
    {"molecule": "CC(=NNC(=S)Nc1ccccc1)c1c(O)c2ccccc2oc1=O", "note": "[COV19143]", "values": [
      {"measurement": "Class (MPro activity class)", "value": "0 (compounds with IC50 > 20 μM, percentage inhibition <80% at 20 µM or 50 μM, or percentage enzyme inhibition <50% at 10 µM were labelled as INACTIVE)"}
    ]},
    {"molecule": "CC(=NNC(N)=O)c1cc2ccccc2oc1=O", "note": "[COV19144]", "values": [
      {"measurement": "Class (MPro activity class)", "value": "0 (compounds with IC50 > 20 μM, percentage inhibition <80% at 20 µM or 50 μM, or percentage enzyme inhibition <50% at 10 µM were labelled as INACTIVE)"}
    ]},
    {"molecule": "CC(=NNC(N)=[Se])c1cc2ccccc2oc1=O", "note": "[COV19145]", "values": [
      {"measurement": "Class (MPro activity class)", "value": "0 (compounds with IC50 > 20 μM, percentage inhibition <80% at 20 µM or 50 μM, or percentage enzyme inhibition <50% at 10 µM were labelled as INACTIVE)"}
    ]},
    {"molecule": "CN(CCc1ccc(Cl)cc1)C(=S)c1ccccc1I", "note": "[COV19183]", "values": [
      {"measurement": "Class (MPro activity class)", "value": "0 (compounds with IC50 > 20 μM, percentage inhibition <80% at 20 µM or 50 μM, or percentage enzyme inhibition <50% at 10 µM were labelled as INACTIVE)"}
    ]},
    {"molecule": "CC(C)(C)OC(=O)NC1CCCN(CC(=O)NC(Cc2ccccc2)C(=O)Nc2nc3cc(Sc4ccccc4)ccc3[nH]2)C1=O", "note": "(stereo not drawn) [COV19184]", "values": [
      {"measurement": "Class (MPro activity class)", "value": "0 (compounds with IC50 > 20 μM, percentage inhibition <80% at 20 µM or 50 μM, or percentage enzyme inhibition <50% at 10 µM were labelled as INACTIVE)"}
    ]},
    {"molecule": "CCCOC(=O)C(Cc1ccccc1)NC(=O)CN1CCCC(NC(=O)OC(C)(C)C)C1=O", "note": "(stereo not drawn) [COV19185]", "values": [
      {"measurement": "Class (MPro activity class)", "value": "0 (compounds with IC50 > 20 μM, percentage inhibition <80% at 20 µM or 50 μM, or percentage enzyme inhibition <50% at 10 µM were labelled as INACTIVE)"}
    ]},
    {"molecule": "CC(=O)OCC1OC(OC(C)=O)C(NC(=O)C(Cc2ccccc2)NC(=O)CN2CCCC(NC(=O)OC(C)(C)C)C2=O)C(OC(C)=O)C1OC(C)=O", "note": "(stereo not drawn) [COV19186]", "values": [
      {"measurement": "Class (MPro activity class)", "value": "1 (Compounds with IC50 < 10 µM or with a percentage of enzyme inhibition >50% at 10 µM were labelled as ACTIVE)"}
    ]},
    {"molecule": "C(=Cc1ccco1)C=Nn1cnnc1", "note": "[COV19287]", "values": [
      {"measurement": "Class (MPro activity class)", "value": "0 (compounds with IC50 > 20 μM, percentage inhibition <80% at 20 µM or 50 μM, or percentage enzyme inhibition <50% at 10 µM were labelled as INACTIVE)"}
    ]},
    {"molecule": "Cc1c(C(=O)Nc2ccccc2)[n+]([O-])c2cc(CN(C)CC=Cc3ccccc3)ccc2[n+]1[O-]", "note": "[COV19291]", "values": [
      {"measurement": "Class (MPro activity class)", "value": "0 (compounds with IC50 > 20 μM, percentage inhibition <80% at 20 µM or 50 μM, or percentage enzyme inhibition <50% at 10 µM were labelled as INACTIVE)"}
    ]},
    {"molecule": "O=S(=O)(C=Cc1ccc2no[n+]([O-])c2c1)c1ccccc1", "note": "[COV19497]", "values": [
      {"measurement": "Class (MPro activity class)", "value": "1 (Compounds with IC50 < 10 µM or with a percentage of enzyme inhibition >50% at 10 µM were labelled as ACTIVE)"}
    ]},
    {"molecule": "O=S(=O)(C=Cc1ccc2nonc2c1)c1ccccc1", "note": "[COV19498]", "values": [
      {"measurement": "Class (MPro activity class)", "value": "0 (compounds with IC50 > 20 μM, percentage inhibition <80% at 20 µM or 50 μM, or percentage enzyme inhibition <50% at 10 µM were labelled as INACTIVE)"}
    ]},
    {"molecule": "O=S(=O)(C=Cc1ccc2no[n+]([O-])c2c1)c1ccc(Cl)cc1", "note": "[COV19499]", "values": [
      {"measurement": "Class (MPro activity class)", "value": "1 (Compounds with IC50 < 10 µM or with a percentage of enzyme inhibition >50% at 10 µM were labelled as ACTIVE)"}
    ]},
    {"molecule": "O=S(=O)(C=Cc1ccc2no[n+]([O-])c2c1)c1ccc(F)cc1", "note": "[COV19500]", "values": [
      {"measurement": "Class (MPro activity class)", "value": "1 (Compounds with IC50 < 10 µM or with a percentage of enzyme inhibition >50% at 10 µM were labelled as ACTIVE)"}
    ]},
    {"molecule": "[O-][n+]1onc2ccc(C=CSc3ccc(F)cc3)cc21", "note": "[COV19501]", "values": [
      {"measurement": "Class (MPro activity class)", "value": "1 (Compounds with IC50 < 10 µM or with a percentage of enzyme inhibition >50% at 10 µM were labelled as ACTIVE)"}
    ]}
  ]
}
